# ChEMBL document CHEMBL5505968, “Hybrids of selective COX-2 inhibitors and active derivatives of edaravone as COX-2 selective NSAIDs with free radical scavenging activity: Design, synthesis and biological activities” (Eur J Med Chem, 2024)
# Experiments:
# [1] = Antioxidant activity assessed as DPPH radical scavenging activity at 40 uM incubated for 30 mins by thermo-microplate photometric analysis relative to control; format: functional
# [2] = molecular target: Prostaglandin G/H synthase 2 (Homo sapiens) (UniProt P35354); test: Inhibition of COX-2 (unknown origin) using arachidonic acid as substrate at 10 uM preincubated for 10 mins followed by substrate addition and measured after 5 mins by fluorescence based analysis relative to control; settings: time 15.0 min
# [3] = molecular target: Prostaglandin G/H synthase 2 (Homo sapiens) (UniProt P35354); test: Inhibition of COX-2 (unknown origin) using arachidonic acid as substrate at 1 uM preincubated for 10 mins followed by substrate addition and measured after 5 mins by fluorescence based analysis relative to control; settings: time 15.0 min
# Mus musculus [4] = test: Analgesic activity against acetic acid-induced ICR mouse assessed as number of writhing at 20 mg/kg,ip pre-administrated with compound for 15 mins followed by acetic acid addition and measured after 15 mins; format: functional; settings: time 30 min, 0.5 h
# Mus musculus [5] = test: Analgesic activity against acetic acid-induced ICR mouse assessed as inhibition of writhing at 20 mg/kg,ip pre-administrated with compound for 15 mins followed by acetic acid addition and measured after 15 mins; format: functional; settings: 0.5 h, time 30 min
# [6] = MRT (0 to infinity) in ICR mouse at 10 mg/kg,po administration measured for 0.25 to 8 hrs by LC-MS/MS analysis; format: ADME, organism-based; settings: in vivo, time 0.25-8 hrs
# [7] = AUC (0 to t) in ICR mouse at 1 mg/kg,iv administration measured for 0.25 to 8 hrs by LC-MS/MS analysis; format: ADME, organism-based; settings: in vivo, time 0.25-8 hrs
# [8] = Cmax in ICR mouse at 1 mg/kg,iv administration measured for 0.25 to 8 hrs by LC-MS/MS analysis; format: ADME, organism-based; settings: in vivo, time 0.25-8 hrs
# Liver [9] = test: Antioxidant activity against FeCl2 induced oxidative stress in ICR mouse liver assessed as inhibition of malondialdehyde level at 500 uM incubated for 60 mins by thermo-microplate photometric analysis relative to control; format: functional; settings: 1 h
# [10] = Half life in ICR mouse at 1 mg/kg,iv administration measured for 0.25 to 8 hrs by LC-MS/MS analysis; format: ADME, organism-based; settings: in vivo, time 0.25-8 hrs
# Mus musculus [11] = test: Analgesic activity against acetic acid-induced ICR mouse assessed as inhibition of writhing at 50 mg/kg,ip pre-administrated with compound for 15 mins followed by acetic acid addition and measured after 15 mins; format: functional; settings: 0.5 h, time 30 min
# [12] = Apparent volume of distribution in ICR mouse at 10 mg/kg,po administration measured for 0.25 to 8 hrs by LC-MS/MS analysis; format: ADME, organism-based; settings: in vivo, time 0.25-8 hrs
# [13] = Bioavailability in ICR mouse at 1 mg/kg,iv administration measured for 0.25 to 8 hrs by LC-MS/MS analysis; format: ADME, organism-based; settings: in vivo, time 0.25-8 hrs
# [14] = Tmax in ICR mouse at 1 mg/kg,iv administration measured for 0.25 to 8 hrs by LC-MS/MS analysis; format: ADME, organism-based; settings: in vivo, time 0.25-8 hrs
# [15] = Clearance in ICR mouse at 1 mg/kg,iv administration measured for 0.25 to 8 hrs by LC-MS/MS analysis; format: ADME, organism-based; settings: in vivo, time 0.25-8 hrs
# [16] = AUC (0 to infinity) in ICR mouse at 1 mg/kg,iv administration measured for 0.25 to 8 hrs by LC-MS/MS analysis; format: ADME, organism-based; settings: in vivo, time 0.25-8 hrs
# [17] = AUC (0 to infinity) in ICR mouse at 10 mg/kg,po administration measured for 0.25 to 8 hrs by LC-MS/MS analysis; format: ADME, organism-based; settings: in vivo, time 0.25-8 hrs
# Liver [18] = test: Antioxidant activity against FeCl2 induced oxidative stress in ICR mouse liver assessed as inhibition of malondialdehyde level at 1000 uM incubated for 60 mins by thermo-microplate photometric analysis relative to control; format: functional; settings: 1 h
# [19] = AUC (0 to t) in ICR mouse at 10 mg/kg,po administration measured for 0.25 to 8 hrs by LC-MS/MS analysis; format: ADME, organism-based; settings: in vivo, time 0.25-8 hrs
# Liver [20] = test: Antioxidant activity against FeCl2 induced oxidative stress in ICR mouse liver assessed as inhibition of malondialdehyde level at 250 uM incubated for 60 mins by thermo-microplate photometric analysis relative to control; format: functional; settings: 1 h
# [21] = MRT (0 to infinity) in ICR mouse at 1 mg/kg,iv administration measured for 0.25 to 8 hrs by LC-MS/MS analysis; format: ADME, organism-based; settings: in vivo, time 0.25-8 hrs
# [22] = Half life in ICR mouse at 10 mg/kg,po administration measured for 0.25 to 8 hrs by LC-MS/MS analysis; format: ADME, organism-based; settings: in vivo, time 0.25-8 hrs
# [23] = Apparent volume of distribution in ICR mouse at 1 mg/kg,iv administration measured for 0.25 to 8 hrs by LC-MS/MS analysis; format: ADME, organism-based; settings: in vivo, time 0.25-8 hrs, read-out: Vz
# [24] = Tmax in ICR mouse at 10 mg/kg,po administration measured for 0.25 to 8 hrs by LC-MS/MS analysis; format: ADME, organism-based; settings: in vivo, time 0.25-8 hrs
# Mus musculus [25] = test: Analgesic activity against acetic acid-induced ICR mouse assessed as number of writhing at 50 mg/kg,ip pre-administrated with compound for 15 mins followed by acetic acid addition and measured after 15 mins; format: functional; settings: time 30 min, 0.5 h
# [26] = Cmax in ICR mouse at 10 mg/kg,po administration measured for 0.25 to 8 hrs by LC-MS/MS analysis; format: ADME, organism-based; settings: in vivo, time 0.25-8 hrs
# [27] = Clearance in ICR mouse at 10 mg/kg,po administration measured for 0.25 to 8 hrs by LC-MS/MS analysis; format: ADME, organism-based; settings: in vivo, time 0.25-8 hrs
# [28] = Antioxidant activity assessed as DPPH radical scavenging activity incubated for 30 mins by thermo-microplate photometric analysis; format: functional
# Sequence of Prostaglandin G/H synthase 2 (Homo sapiens) (P35354 whole entry, looked up): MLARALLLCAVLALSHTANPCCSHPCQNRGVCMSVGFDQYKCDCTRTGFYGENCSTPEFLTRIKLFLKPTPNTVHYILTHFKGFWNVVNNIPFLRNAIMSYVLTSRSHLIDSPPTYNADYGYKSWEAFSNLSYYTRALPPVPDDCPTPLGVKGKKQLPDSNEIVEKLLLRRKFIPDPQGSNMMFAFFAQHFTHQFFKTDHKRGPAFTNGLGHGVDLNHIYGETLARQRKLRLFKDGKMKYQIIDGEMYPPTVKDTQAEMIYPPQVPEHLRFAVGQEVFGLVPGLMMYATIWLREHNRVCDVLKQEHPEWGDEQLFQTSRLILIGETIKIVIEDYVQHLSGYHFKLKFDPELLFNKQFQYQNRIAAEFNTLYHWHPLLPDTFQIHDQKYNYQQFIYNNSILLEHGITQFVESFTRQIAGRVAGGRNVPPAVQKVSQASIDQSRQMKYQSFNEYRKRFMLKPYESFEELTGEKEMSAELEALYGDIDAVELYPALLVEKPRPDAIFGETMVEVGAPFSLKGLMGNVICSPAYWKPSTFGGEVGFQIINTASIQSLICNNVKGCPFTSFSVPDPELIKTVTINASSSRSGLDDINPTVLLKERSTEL
compound,measurement,setting,value
Cc1nn(-c2ccc(Cl)cc2)c(O)c1Cc1ccc(C(=O)O)cc1,inhibition,[1],36.1%
same,inhibition,[2],78.5%
same,inhibition,[3],46%
COc1cccc(-n2nc(C)c(Cc3ccc(C(=O)NO)cc3)c2O)c1,inhibition,[1],43.3%
same,inhibition,[2],89%
same,inhibition,[3],78%
Cc1nn(-c2ccccc2)c(O)c1Cc1ccc(C(=O)O)cc1,inhibition,[1],37.7%
same,inhibition,[2],95%
same,inhibition,[3],85.5%
Cc1nn(-c2ccccc2)c(O)c1Cc1cccc(S(C)(=O)=O)c1,inhibition,[1],22.8%
same,inhibition,[2],84.5%
same,inhibition,[3],77.5%
O=C(O)c1ccc(Cc2c(C3CC3)nn(-c3ccccc3)c2O)cc1,inhibition,[1],37.3%
same,inhibition,[2],82%
same,inhibition,[3],57.5%
CC(C)(C)c1nn(-c2ccccc2)c(O)c1Cc1ccc(C(=O)O)cc1,inhibition,[1],49.9%
same,inhibition,[2],73%
same,inhibition,[3],54.5%
Cc1nn(-c2ccc(Cl)cc2)c(O)c1Cc1ccc(C(=O)NO)cc1,inhibition,[1],68%
same,inhibition,[2],78.5%
same,inhibition,[3],64.5%
Cc1ccc(-c2cc(C(F)(F)F)nn2-c2ccc(S(N)(=O)=O)cc2)cc1 [CELECOXIB],Activity,Mus musculus [4],7.1
same,inhibition in vivo at 20 mg/kg,Mus musculus [5],80.9%
Cc1nn(-c2ccc(Cl)c(Cl)c2)c(O)c1Cc1ccc(C(=O)O)cc1,inhibition,[1],38.6%
same,inhibition,[2],81%
same,inhibition,[3],50.5%
Cc1[nH]n(-c2ccccc2)c(=O)c1Cc1cccc(C(=O)NO)c1,inhibition,[1],11%
same,inhibition,[2],86%
same,inhibition,[3],66.5%
Cc1[nH]n(-c2ccccc2)c(=O)c1Cc1ccc(C(=O)NO)cc1,MRT inf,[6],6.32 h
same,inhibition,[1],71.6%
same,inhibition,[2],98%
same,AUC(0-t),[7],7680 ng·h/mL
same,Cmax,[8],12200 ng/mL
same,inhibition at 500 µM,Liver [9],62.3%
same,half-life,[10],2.74 h
same,inhibition in vivo at 50 mg/kg,Mus musculus [11],73.7%
same,Vz,[12],2.13507 L/kg
same,inhibition,[3],87%
same,bioavailability,[13],36%
same,Tmax,[14],4.8 min
same,clearance,[15],2.12 mL/min/kg
same,AUC(0-inf),[16],7870 ng·h/mL
same,AUC(0-inf),[17],28400 ng·h/mL
same,inhibition at 1000 µM,Liver [18],77.3%
same,AUC(0-t),[19],20300 ng·h/mL
same,inhibition at 250 µM,Liver [20],51.9%
same,MRT inf,[21],1.08 h
same,Activity,Mus musculus [4],11.1
same,half-life,[22],4.16 h
same,Vd,[23],0.508 L/kg
same,Tmax,[24],1 h
same,inhibition in vivo at 20 mg/kg,Mus musculus [5],70.2%
same,Activity,Mus musculus [25],9.8
same,Cmax,[26],4510 ng/mL
same,CL/F,[27],5.92 mL/min/kg
same,IC50,[28],19.9 µM
Cc1nn(-c2ccccc2)c(O)c1Cc1ccc(S(C)(=O)=O)cc1,inhibition,[1],37.1%
same,inhibition,[2],90%
same,inhibition,[3],77.5%
O=C(NO)c1ccc(Cc2c(C3CC3)[nH]n(-c3ccccc3)c2=O)cc1,inhibition,[1],64.7%
same,inhibition,[2],72.5%
same,inhibition,[3],55%
Cc1nn(-c2cccc(Cl)c2)c(O)c1Cc1ccc(C(=O)O)cc1,inhibition,[1],35.8%
same,inhibition,[2],75%
same,inhibition,[3],45.5%
CC(C)(C)c1nn(-c2ccccc2)c(O)c1Cc1ccc(C(=O)NO)cc1,inhibition,[1],72.9%
same,inhibition,[2],89%
same,inhibition,[3],75%
same,IC50,[28],19.6 µM
Cc1nn(-c2cccc(Cl)c2)c(O)c1Cc1ccc(C(=O)NO)cc1,inhibition,[1],69.2%
same,inhibition,[2],90.5%
same,inhibition,[3],75%
same,IC50,[28],23.8 µM
Cc1nn(-c2ccccc2)c(O)c1Cc1ccc(CC(=O)O)cc1,inhibition,[1],38.5%
same,inhibition,[2],86.5%
same,inhibition,[3],78%
COc1cccc(-n2nc(C)c(Cc3ccc(C(=O)O)cc3)c2O)c1,inhibition,[1],33.6%
same,inhibition,[2],79%
same,inhibition,[3],58.5%
CCc1nn(-c2ccccc2)c(O)c1Cc1ccc(C(=O)NO)cc1,inhibition,[1],67.7%
same,inhibition,[2],82.5%
same,inhibition,[3],70.5%
same,IC50,[28],22.1 µM
CC1=NN(c2ccccc2)C(=O)C1 [EDARAVONE],inhibition,[1],64.3%
same,inhibition at 500 µM,Liver [9],46.9%
same,inhibition at 1000 µM,Liver [18],62.2%
same,inhibition at 250 µM,Liver [20],37.7%
same,IC50,[28],32.8 µM
Cc1nn(-c2ccc(Cl)c(Cl)c2)c(O)c1Cc1ccc(C(=O)NO)cc1,inhibition,[1],58.1%
same,inhibition,[2],80.5%
same,inhibition,[3],58.5%
Cc1nn(-c2ccccc2)c(O)c1Cc1cccc(C(=O)O)c1,inhibition,[1],17.4%
same,inhibition,[2],94.5%
same,inhibition,[3],63.5%
CCc1nn(-c2ccccc2)c(O)c1Cc1ccc(C(=O)O)cc1,inhibition,[1],42.7%
same,inhibition,[2],83.5%
same,inhibition,[3],63.5%
